Test system: H3K9me3
Assay: Hypermethylation of histone H3 at lysine 9 (H3K9me3), MCF7
Format: cell-based
Conditions: Homo sapiens, 2 DT, n = 2, read-out: EC50 H3K9me3 levels
Method: Relative IC50/EC50 values were determined by curve fitting to a four parameter logistic equation: Y = bottom + ((top-bottom)/ (1+exp(HillSlope*(X – LnIC50)), where X is the natural log of dose/concentration, Y is response, decreasing as X increases, top and bottom are plateaus in the same units as Y, lnIC50 is the natural log of potency, in the same log units as X, and HillSlope measures the steepness of the curve. Data were plotted using GraphPad Prism.
BioResearch) where indicated; the dates of acquisition and in an Acumen Explorer Ex3 (TTP Labtech), raw data testing are listed in parentheses: ZR-75-1; T-47D; MDA- were analyzed with Cellista software and then further MB-468; HCC70; BT-549; BT-20; MDA-MB-231; MDA- normalized in Excel against the values obtained for cells MB-175-VII, HCC-1937; MDA-MB-415. treated with 2 µM BEZ235, or vehicle (0.2% v/v DMSO); data were graphed using GraphPad Prism®. Images were SA-β-galactosidase immunocytochemical labeling taken by fluorescent microscopy using a Leica DMiL. […]
SA-β-gal Cell samples were lysed after treatment with expression was determined using the Senescence Cells 100 µL lysis buffer and transferred to a 96-well plate. […]
(BSA) (Invitrogen #15260-037) for 1 hour at 25°C. EdU Samples were analyzed by LC─MS/MS under the detection was performed using the Click-iT High Content conditions described below. […]

EC50: 340 ± 16 nM
SMILES: CCN1CCN(Cc2ccc(Nc3ncc(F)c(-c4cc(F)c5nc(C)n(C(C)C)c5c4)n3)nc2)CC1 [abemaciclib, Abemaciclib]
